Where a name gives a salt, the structure may show the parent alone.
target: T1, MerTK (Homo sapiens, UniProt Q12866); assay: MerTk degradation in Jurkat cells (Western blot); assay type: cell-based; settings: 0.001-1 μM, 4 hour-incubation at 37° C., read-out: Jurkat Max % MerTK Degradation
T1 construct: endogenous in cells; host or cells: Jurkat cells
T1 sequence (Q12866 21-999): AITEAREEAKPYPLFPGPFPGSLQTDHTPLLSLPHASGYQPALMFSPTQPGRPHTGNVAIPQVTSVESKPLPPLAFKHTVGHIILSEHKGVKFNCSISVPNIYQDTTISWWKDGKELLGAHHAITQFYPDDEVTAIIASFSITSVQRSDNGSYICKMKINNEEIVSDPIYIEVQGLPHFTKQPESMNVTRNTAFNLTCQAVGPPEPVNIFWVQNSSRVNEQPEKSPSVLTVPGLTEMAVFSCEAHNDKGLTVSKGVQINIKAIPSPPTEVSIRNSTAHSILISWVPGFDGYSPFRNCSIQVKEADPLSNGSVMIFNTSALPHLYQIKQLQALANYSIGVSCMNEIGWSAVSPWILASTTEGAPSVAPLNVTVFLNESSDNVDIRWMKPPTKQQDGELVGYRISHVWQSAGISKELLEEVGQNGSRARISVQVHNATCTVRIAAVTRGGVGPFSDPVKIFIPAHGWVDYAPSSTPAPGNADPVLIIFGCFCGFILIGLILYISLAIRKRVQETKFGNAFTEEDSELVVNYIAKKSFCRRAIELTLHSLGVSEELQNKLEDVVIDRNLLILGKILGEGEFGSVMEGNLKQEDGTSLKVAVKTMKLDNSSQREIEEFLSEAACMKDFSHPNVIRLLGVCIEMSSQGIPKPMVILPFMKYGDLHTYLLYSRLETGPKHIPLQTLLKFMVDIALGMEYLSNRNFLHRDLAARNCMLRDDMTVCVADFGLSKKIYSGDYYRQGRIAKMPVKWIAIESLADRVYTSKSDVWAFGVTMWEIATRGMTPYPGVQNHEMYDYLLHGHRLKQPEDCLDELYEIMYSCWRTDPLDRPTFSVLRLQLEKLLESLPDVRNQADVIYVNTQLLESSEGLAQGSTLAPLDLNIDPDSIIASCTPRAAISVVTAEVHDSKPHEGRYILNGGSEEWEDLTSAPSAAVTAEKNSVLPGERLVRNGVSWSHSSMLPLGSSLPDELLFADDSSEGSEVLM
Experimental: Compounds were reconstituted in DMSO to make 10 mM stock solutions. […] Cells were seeded into 6-well plates with about 5×10^6 cells per well. 2 μL of diluted compounds were added to cells to the final concentration of 0.001-1 μM. After a 4 hour-incubation at 37° C., cells were collected into 2 mL Eppendorf tubes and centrifuged at 1,000 rpm for 5 min. The cell pellets were washed with DPBS (1×) once and resuspended in 60 μL RIPA lysis buffer with Halt Protease and Phophatase Inhibitor Cocktail. The cells were lysed on ice for 10 min, then centrifuged at 14,000 rpm for 10 min at 4° C. and the supernatants were collected for western blots.
The protein concentration of cell lysates was quantified with Pierce™ BCA Protein Assay Kit. […] BCA working reagents were prepared by mixing BCA reagent A with reagent B in 50: 1 ratio. 200 μL of the BCA working reagents were added to 25 μL of BCA standard or cell lysates in microplate, and mixed thoroughly on a plate shaker for 30 seconds. After incubation at 37° C. for 30 min, the absorbance of samples at 562 nm were measured with EnVision Plate Reader.
Protein lysates were prepared in NuPAGE™ LDS sample buffer and NuPAGE™ sample reducing agent, and incubated at 95° C. for 5 min. […] The proteins were transferred to low fluorescence PVDF membranes using the Trans-Blot Turbo Transfer System. Membranes were then blocked in Odyssey blocking buffer at RT for 1 h followed by primary incubation at 4° C. overnight. The primary antibodies were MerTK rabbit monoclonal antibody and actin mouse monoclonal antibody. Membranes were washed three times with TBST (1×), and then incubated with IR Dye 800 CW Goat anti-rabbit and IR Dye 700 CW Goat anti-mouse secondary antibodies in 1:10,000 dilution at RT for 1 h. The Western blot images were obtained using Odyssey Imaging System.

Row | Structure (SMILES) | Dmax [%]
1 | CN1CCN(Cc2ccc(-c3ccc(CO[C@H]4CCC[C@@H]4NC(=O)c4cc(-c5cnn(CCCCC(=O)NCCCOCCCc6ccc7c(c6)n(C)c(=O)n7C6CCC(=O)NC6=O)c5)cnc4N)cc3)cc2)CC1 (some centres unmarked) [I-39, formic acid] | > 50

same assay, conditions: Jurkat, 4 h, 0.001-1 μM, 4 hour-incubation at 37° C., read-out: Jurkat Max % MerTK Degradation

Row | Structure (SMILES) | Dmax [%]
2 | CCCCNc1ncc2c(-c3ccc(CN4CCN(CCOCCOCCCc5ccc6c(c5)n(C)c(=O)n6[C@H]5CCC(=O)NC5=O)CC4)cc3)cn([C@H]3CC[C@H](O)CC3)c2n1 [I-42, 3-[5-[3-(2-[2-[4-([4-[2-(butylamino)-7-[trans-4-hydroxycyclohexyl]-7H-pyrrolo[2,3-d]pyrimidin-5-yl]phenyl]methyl)piperazin-1-yl]ethoxy]ethoxy)propyl]-3-methyl-2-oxo-2,3-dihydro-1H-1,3-benzodiazol-1-yl]piperidine-2,6-dione; formic acid] | > 50
3 | CCCCNc1ncc2c(-c3ccc(CN4CCN(CCOCCCc5ccc6c(c5)n(C)c(=O)n6[C@H]5CCC(=O)NC5=O)CC4)cc3)cn([C@H]3CC[C@H](O)CC3)c2n1 [I-43, 3-[5-(3-[2-[4-([4-[2-(butylamino)-7-[trans-4-hydroxycyclohexy1]-7H-pyrrolo[2,3-d]pyrimidin-5-yl]phenyl]methyl)piperazin-1-y1]ethoxy]propyl)-3-methyl-2-oxo-2,3-dihydro-1H-1,3-benzodiazol-1-yl]piperidine-2,6-dione; formic acid] | > 50
4 | CCCCNc1ncc2c(-c3ccc(CN4CCN(CCCc5ccc6c(c5)n(C)c(=O)n6[C@H]5CCC(=O)NC5=O)CC4)cc3)cn([C@H]3CC[C@H](O)CC3)c2n1 [I-44, 3-(5-[3-[4-([4-[2-(Butylamino)-7-[trans-4-hydroxycyclohexyl]-7H-pyrrolo[2,3-d]pyrimidin-5-yl]phenyl]methyl)piperazin-1-yl]propyl]-3-methyl-2-oxo-2,3-dihydro-1H-1,3-benzodiazol-1-y1)piperidine-2,6-dione; formic acid] | < 20
5 | CCCCNc1ncc2c(-c3ccc(CNCCOCCOCCCc4ccc5c(c4)n(C)c(=O)n5[C@H]4CCC(=O)NC4=O)cc3)cn([C@H]3CC[C@H](O)CC3)c2n1 [I-45, 3-[5-[3-(2-[2-[([4-[2-(butylamino)-7-[trans-4-hydroxycyclohexy1]-7H-pyrrolo[2,3-d]pyrimidin-5-yl]phenyl]methyl)amino]ethoxy]ethoxy)propyl]-3-methyl-2-oxo-2,3-dihydro-1H-1,3-benzodiazol-1-y1]piperidine-2,6-dione; formic acid] | > 50
6 | CCCCNc1ncc2c(-c3ccc(CNCCCc4ccc5c(c4)n(C)c(=O)n5[C@H]4CCC(=O)NC4=O)cc3)cn([C@H]3CC[C@H](O)CC3)c2n1 [I-46, 3-(5-[3-[([4-[2-(butylamino)-7-[trans-4-hydroxycyclohexyl]-7H-pyrrolo[2,3-d]pyrimidin-5-yl]phenyl]methyl)amino]propyl]-3-methyl-2-oxo-2,3-dihydro-1H-1,3-benzodiazol-1-yl)piperidine-2,6-dione; formic acid] | > 50
7 | Cn1c(=O)n([C@H]2CCC(=O)NC2=O)c2ccc(CCCOCCOCCOCCNCc3ccc(-c4cn([C@H]5CC[C@H](O)CC5)c5nc(NCCC(F)(F)F)ncc45)cc3)cc21 [I-47, 3-[3-methyl-2-oxo-5-[1-(4-[7-[trans-4-hydroxycyclohexy1]-2-[(3,3,3-trifluoropropyl)amino]-7H-pyrrolo[2,3-d]pyrimidin-5-yl]phenyl)-5,8,11-trioxa-2-azatetradecan-14-y1]-2,3-dihydro-1H-1,3-benzodiazol-1-yl]piperidine-2,6-dione] | > 50
8 | Cn1c(=O)n([C@H]2CCC(=O)NC2=O)c2ccc(CCCOCCOCCNCc3ccc(-c4cn([C@H]5CC[C@H](O)CC5)c5nc(NCCC(F)(F)F)ncc45)cc3)cc21 [I-48, 3-(3-methyl-2-oxo-5-[3-[2-(2-[[(4-[7-[trans-4-hydroxycyclohexyl]-2-[(3,3,3-trifluoropropyl)amino]-7H-pyrrolo[2,3-d]pyrimidin-5-y1]phenyl)methyl]amino]ethoxy)ethoxy]propyl]-2,3-dihydro-1H-1,3-benzodiazol-1-y1)piperidine-2,6-dione] | > 50
9 | CCCCNc1ncc2c(-c3ccc(CNCCCCOCCCCc4ccc5c(c4)n(C)c(=O)n5[C@H]4CCC(=O)NC4=O)cc3)cn([C@H]3CC[C@H](O)CC3)c2n1 [I-53, 3-[5-(4-[4-[([4-[2-(butylamino)-7-[trans-4-hydroxycyclohexyl]-7H-pyrrolo[2,3-d]pyrimidin-5-yl]phenyl]methyl)amino]butoxy]butyl)-3-methyl-2-oxo-2,3-dihydro-1H-1,3-benzodiazol-1-yl]piperidine-2,6-dione hydrochloride] | > 50

The next lines start with the values.

Row | Dmax [%] | Structure (SMILES)
10 | > 50 | CCCCNc1ncc2c(-c3ccc(CN4CCN(CCOCCOCCOCCCc5ccc6c(c5)n(C)c(=O)n6[C@H]5CCC(=O)NC5=O)CC4)cc3)nn([C@H]3CC[C@H](O)CC3)c2n1 [I-49, 3-(5-[3-[2-(2-[2-[4-([4-[6-(butylamino)-1-[trans-4-hydroxycyclohexy1]-1H-pyrazolo[3,4-d]pyrimidin-3-yl]phenyl]methyl)piperazin-1-yl]ethoxy]ethoxy)ethoxy]propyl]-3-methyl-2-oxo-2,3-dihydro-1H-1,3-benzodiazol-1-y1)piperidine-2,6-dione; formic acid]
11 | > 50 | CCCCNc1ncc2c(-c3ccc(CN4CCN(CCOCCOCCCc5ccc6c(c5)n(C)c(=O)n6[C@H]5CCC(=O)NC5=O)CC4)cc3)nn([C@H]3CC[C@H](O)CC3)c2n1 [I-50, 3-[5-[3-(2-[2-[4-([4-[6-(butylamino)-1-[trans-4-hydroxycyclohexyl]-1H-pyrazolo[3,4-d]pyrimidin-3-yl]phenyl]methyl)piperazin-1-yl]ethoxy]ethoxy)propyl]-3-methyl-2-oxo-2,3-dihydro-1H-1,3-benzodiazol-1-y1]piperidine-2,6-dione; formic acid]
12 | > 50 | Cn1c(=O)n([C@H]2CCC(=O)NC2=O)c2ccc(CCCOCCCOCCCNCc3ccc(-c4cn([C@H]5CC[C@H](O)CC5)c5nc(NCCC(F)(F)F)ncc45)cc3)cc21 [I-51, 3-(3-methyl-2-oxo-5-[3-[3-(3-[[(4-[7-[trans-4-hydroxycyclohexy1]-2-[(3,3,3-trifluoropropyl)amino]-7H-pyrrolo[2,3-d]pyrimidin-5-yl]phenyl)methyl]amino]propoxy)propoxy]propyl]-2,3-dihydro-1H-1,3-benzodiazol-1-y1)piperidine-2,6-dione hydrochloride]
13 | > 50 | Cn1c(=O)n([C@H]2CCC(=O)NC2=O)c2cccc(CCCOCCCOCCCNCc3ccc(-c4cn([C@H]5CC[C@H](O)CC5)c5nc(NCCC(F)(F)F)ncc45)cc3)c21 [I-52, 3-(3-methyl-2-oxo-4-[3-[3-(3-[[(4-[7-[trans-4-hydroxycyclohexyl]-2-[(3,3,3-trifluoropropyl)amino]-7H-pyrrolo[2,3-d]pyrimidin-5-yl]phenyl)methyl]amino]propoxy)propoxy]propyl]-2,3-dihydro-1H-1,3-benzodiazol-1-y1)piperidine-2,6-dione hydrochloride]
14 | 20 to 50 | CCCCNc1ncc2c(-c3ccc(CNCCOCCCc4ccc5c(c4)n(C)c(=O)n5[C@H]4CCC(=O)NC4=O)cc3)cn([C@H]3CC[C@H](O)CC3)c2n1 [I-54, 3-[5-(3-[2-[([4-[2-(butylamino)-7-[trans-4-hydroxycyclohexyl]-7H-pyrrolo[2,3-d]pyrimidin-5-yl]phenyl]methyl)amino]ethoxy]propyl)-3-methyl-2-oxo-2,3-dihydro-1H-1,3-benzodiazol-1-yl]piperidine-2,6-dione]

Source: patent US20260042762A1 (Kymera Therapeutics, Inc., priority 2018, published 2026)
